Data from patent EP4299736A2, “HYDROLASES AND USES THEREOF” (Vilnius University, priority 2022, dated 2024).

Legend:
Format in all cases: biochemical
[1] = system: hydrolase Seq ID No: 3 (metagenomic hydrolase); test: Spectrophotometric assay of hydrolytic activity (kinetic parameters); conditions: potassium phosphate buffer, pH 7.5, 22 °C
Experimental: (§1) For the spectrophotometric assay, the reaction was started by adding an appropriate amount of protein to potassium phosphate buffer, pH 7.5 supplemented with 0.3, 0.15, 0.1, 0.075, 0.05, 0.0375, 0.025, 0.0125 mM N^4-benzoyl-2'-deoxycytidine, or 1, 0.8, 0.5, 0.4, 0.25, 0.2, 0.1, 0.05 mM 2'-deoxycytidine. Then, decreases in absorbance at either 310 for N^4-benzoyl-2'-deoxycytidine or 290 nm for 2'-deoxycytidine were recorded at 22 °C. Kinetic parameters (Table x) were calculated using Imfit-py 1.0.2 software fitting the experimental data to a simple Michaelis-Menten kinetics scheme. Table 5. Kinetic parameters of hydrolases. Substrate: BzdC - N4-benzoyl-2'-deoxycytidine; dC-2'-deoxycytidine.

[2] = biological target: hydrolase Seq ID No: 1 (metagenomic, wild-type hydrolase) (uncultured bacterium, UniProt A0ACD6BAS6); test: as above; conditions: potassium phosphate buffer, pH 7.5, 22 °C
Experimental: as §1

[3] = biological target: hydrolase variant Seq ID No:13 (site-directed mutant) (uncultured bacterium, UniProt A0ACD6BAS6, form not given/G85I); test: as above; conditions: potassium phosphate buffer, pH 7.5, 22 °C, 310 nm (BzdC) or 290 nm (dC)
Description: (§2) Mutations in the hydrolase's genes were introduced using methodology based on "Phusion™ Site-Directed Mutagenesis Kit" (Thermo Fisher Scientific). For specific mutagenesis, primer pairs meant to amplify the whole plasmid with the target protein gene, where one primer has miss-matched base pairs in the middle, were created (Fw/Rv): […]/[…] (SEQ ID NO:10); [formula] [formula] […]/[…] (SEQ ID NO:13); [formula] [formula] […]/[…] and […]/[…] (SEQ ID NO: 16, SEQ ID NO: 17, SEQ ID NO: 18); [formula] […]/[…] (SEQ ID NO: 21); [formula] […]/[…] (SEQ ID NO: 23); […]/[…] (SEQ ID NO: 24).
as §1

[4] = biological target: hydrolase variant Seq ID No: 15 (site-directed mutant) (uncultured bacterium, UniProt A0ACD6BAS6); test: as above; conditions: potassium phosphate buffer, pH 7.5, 22 °C, 310 nm (BzdC) or 290 nm (dC)
Description: as §2, §1

[5] = system: hydrolases SEQ ID NO: 1-41; test: Analysis of substrate spectrum of hydrolases (TLC, HPLC-MS, GC-MS); further: key: '+'- active; ' –' inactive towards derivative
Experimental: A hydrolytic activity of enzymes was analysed by thin-layer chromatography (TLC), high-performance liquid chromatography and a mass spectrometry (HPLC-MS) and Gas chromatography and a mass spectrometry (GC-MS) methods. Nucleosides, as substrates and hydrolysis reaction products, were tested by thin-layer chromatography (TLC) method and by a high-performance liquid chromatography - mass spectroscopy (HPLC-MS) method. Other reaction products were detected by Gas chromatography-Mass spectrometry (GC-MS) system. […] The conditions of the reactions are given below.
Hydrolysis products test by thin-layer chromatography (TLC) method. A hydrolytic activity was assayed in reaction mixture containing 45 mM potassium phosphate buffer, pH 7.5, 1 µl enzyme (0.1-4.6 µg/reaction) and 4 mM substrate. The total reaction mix volume was 20 µl. Reaction mixture were incubated at 30 °C temperature up to 3 h and at RT overnight. Thin-layer chromatography (TLC) was conducted on the Merck silica gel 60 F254 plates, using the chloroform and methanol (5:1) mixture of solvents.
High-performance liquid chromatography/mass spectrometry (HPLC-MS) analysis of hydrolysis reaction products. […] Mass scans were measured from m/z 10 up to m/z 500, at 350 °C interface temperature, 250 °C DL temperature, ±4,500 V interface voltage, neutral DL/Qarray, using N 2 as nebulizing and drying gas. Mass spectrometry data was acquired in both the positive and negative ionization mode. The data was analysed using the LabSolutions LCMS software. For HPLC-MS analysis, the reaction mixture consisted of 45 mM potassium phosphate buffer (pH 7.5), 2 mM substrate (from 50-100 mM stock in DMSO), and protein (-0.5-1 mg/ ml). Reaction mixture was incubated at 30 °C temperature up to 3 h and at RT overnight.
Gas chromatography-Mass spectrometry (GC-MS) analysis of hydrolysis reaction products. GC-MS analyses were performed with a Shimadzu GCMS-QP2010 Ultra Plus (Kyoto, Japan). […] Temperature program -50°C (1 min), 50°C →250 °C (25 °C/min), total run time - 15 min. The temperatures of injector, interface and ion source were 250°C.
For GC-MS analysis, the reaction mixture consisted of 45 mM potassium phosphate buffer (pH 7.5), 2.4 mM substrate (from 50-100 mM stock in DMSO), and protein (-0.5-1 mg/ ml). The total reaction mix volume was 1000 µl. The hydrolysis reaction products were extracted with ethyl acetate (3x 400 µl).

[6] = 310 nm (BzdC) or 290 nm (dC), unit not given
[7] = absorbance decrease at 310 nm (BzdC) or 290 nm (dC), Michaelis-Menten fit

hydrolase Seq ID No: 1 (metagenomic, wild-type hydrolase), sequence (A0ACD6BAS6 entry or part of it): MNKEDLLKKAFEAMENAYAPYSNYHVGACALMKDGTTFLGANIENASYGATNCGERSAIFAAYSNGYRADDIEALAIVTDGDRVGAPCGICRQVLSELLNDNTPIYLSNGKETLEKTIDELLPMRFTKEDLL
hydrolase variant Seq ID No: 15 (site-directed mutant), sequence (A0ACD6BAS6 entry or part of it, change not shown): as the sequence (A0ACD6BAS6 entry or part of it) above
hydrolase variant Seq ID No:13 (site-directed mutant), sequence (A0ACD6BAS6 entry or part of it G85I, form open): as the sequence (A0ACD6BAS6 entry or part of it) above

Row | Compound | Hydrolysis of S^4-alkyl uridine derivatives ([5]; enzyme SEQ ID No:1) | Hydrolysis of S^4-alkyl uridine derivatives ([5]; enzyme SEQ ID No:3) | Hydrolysis of S^4-alkyl uridine derivatives ([5]; enzyme SEQ ID No:4) | Hydrolysis of S^4-alkyl uridine derivatives ([5]; enzyme SEQ ID No:2) | Hydrolysis of S^4-alkyl uridine derivatives ([5]; enzyme SEQ ID No:6) | Hydrolysis of S^4-alkyl uridine derivatives ([5]; enzyme SEQ ID No:9) | Hydrolysis of S^4-alkyl uridine derivatives ([5]; enzyme SEQ ID No:25) | Hydrolysis of S^4-alkyl uridine derivatives ([5]; enzyme SEQ ID No:27) | Hydrolysis of S^4-alkyl uridine derivatives ([5]; enzyme SEQ ID No:28) | Hydrolysis of S^4-alkyl uridine derivatives ([5]; enzyme SEQ ID No:30) | Hydrolysis of S^4-alkyl uridine derivatives ([5]; enzyme SEQ ID No:32) | Hydrolysis of S^4-alkyl uridine derivatives ([5]; enzyme SEQ ID No:34) | Hydrolysis of S^4-alkyl uridine derivatives ([5]; enzyme SEQ ID No:35) | Hydrolysis of S^4-alkyl uridine derivatives ([5]; enzyme SEQ ID No:36) | Hydrolysis of S^4-alkyl uridine derivatives ([5]; enzyme SEQ ID No:37) | Hydrolysis of S^4-alkyl uridine derivatives ([5]; enzyme SEQ ID No:38) | also measured
1 | Nc1ccn([C@H]2C[C@H](O)[C@@H](CO)O2)c(=O)n1 [dC, 2'-deoxycytidine] | – | – | – | – | – | – | – | – | – | – | – | – | – | – | – | – | kcat ([1]; 310 nm (BzdC) or 290 nm (dC)): (2.09 +/- 0.09) ×10^-1 s^-1; Vmax [1, 6]: (1.20 ± 0.05) × 10^-4; Km [1, 7]: 182 µM; kcat ([2]; 310 nm (BzdC) or 290 nm (dC)): (24.4 ± 1.71) × 10 ^-1 s^-1; Vmax [2, 6]: (2.67 ± 0.19) × 10^-4; Km [2, 7]: 195 µM; kcat [3]: (6.87 ± 0.80) × 10 ^-1 s^-1; Vmax ([3]; unit not given): (4.35 ± 0.51) × 10^-4; kcat [4]: (2.58 ± 0.09) × 10^-2 s^-1; Vmax ([4]; unit not given): (6.70 ± 0.24) × 10^-5
2 | CC(C)Sc1ccn([C@@H]2O[C@H](CO)[C@@H](O)[C@H]2O)c(=O)n1 [4-S-iso-propyl-U] | + | + | + | – | – | – | – | – | – | – | – | – | – | – | – | – | –
3 | CCSc1ccn([C@@H]2O[C@H](CO)[C@@H](O)[C@H]2O)c(=O)n1 [4-S-ethyl-U] | + | + | + | + | + | + | + | + | + | + | + | + | + | + | + | + | Hydrolysis of S^4-alkyl uridine derivatives ([5]; enzyme SEQ ID No:21): +; Hydrolysis of S^4-alkyl uridine derivatives ([5]; enzyme SEQ ID No:26): +; Hydrolysis of S^4-alkyl uridine derivatives ([5]; enzyme SEQ ID No:29): +; Hydrolysis of S^4-alkyl uridine derivatives ([5]; enzyme SEQ ID No:31): +; Hydrolysis of S^4-alkyl uridine derivatives ([5]; enzyme SEQ ID No:33): +; Hydrolysis of S^4-alkyl uridine derivatives ([5]; enzyme SEQ ID No:39): +; Hydrolysis of S^4-alkyl uridine derivatives ([5]; enzyme SEQ ID No:40): +; Hydrolysis of S^4-alkyl uridine derivatives ([5]; enzyme SEQ ID No:41): +
4 | O=c1nc(SCc2ccccc2)ccn1[C@@H]1O[C@H](CO)[C@@H](O)[C@H]1O [4-S-benzyl-U] | + | + | + | + | – | + | + | – | + | + | – | + | + | – | – | + | Hydrolysis of S^4-alkyl uridine derivatives ([5]; enzyme SEQ ID No:10): +; Hydrolysis of S^4-alkyl uridine derivatives ([5]; enzyme SEQ ID No:13): +; Hydrolysis of S^4-alkyl uridine derivatives ([5]; enzyme SEQ ID No:14): +; Hydrolysis of S^4-alkyl uridine derivatives ([5]; enzyme SEQ ID No:21): +; Hydrolysis of S^4-alkyl uridine derivatives ([5]; enzyme SEQ ID No:39): +; Hydrolysis of S^4-alkyl uridine derivatives ([5]; enzyme SEQ ID No:41): +
5 | CC(C)CSc1ccn([C@@H]2O[C@H](CO)[C@@H](O)[C@H]2O)c(=O)n1 [4-S-iso-butyl-U] | + | + | + | – | – | – | – | – | – | – | – | – | – | – | – | – | –
6 | O=c1nc(Sc2ccccc2)c(F)cn1[C@@H]1O[C@H](CO)[C@@H](O)[C@H]1O [5F-4-S-phenyl-U] | + | – | + | – | – | – | – | – | – | – | – | – | + | – | – | + | –
7 | CCSc1nc(=O)n([C@@H]2O[C@H](CO)[C@@H](O)[C@H]2O)cc1F [5-F-4-S-ethyl-U] | + | + | + | + | + | + | + | + | + | + | + | + | + | + | + | + | –
8 | O=c1nc(SCc2ccccc2)c(F)cn1[C@@H]1O[C@H](CO)[C@@H](O)[C@H]1O [5-F-4-S-benzyl-U] | + | + | + | + | – | + | + | – | – | + | – | + | + | – | – | – | –
9 | CSc1nc(=O)n([C@@H]2O[C@H](CO)[C@@H](O)[C@H]2O)cc1F [5-F-4-S-methyl-U] | + | + | + | + | + | + | + | + | + | + | + | + | + | + | + | + | Hydrolysis of S^4-alkyl uridine derivatives ([5]; enzyme SEQ ID No:26): +; Hydrolysis of S^4-alkyl uridine derivatives ([5]; enzyme SEQ ID No:29): +; Hydrolysis of S^4-alkyl uridine derivatives ([5]; enzyme SEQ ID No:33): +
10 | CCCSc1ccn([C@@H]2O[C@H](CO)[C@@H](O)[C@H]2O)c(=O)n1 [4-S-n-propyl-U] | + | + | + | – | – | – | – | – | – | – | – | – | – | – | – | – | –
